Measured values taken from patent US20240083844A1, “KINASE INHIBITORS AND USES THEREOF” (ABM Therapeutics Corporation, priority 2020, published 2024).

Tests used:
[1] = test system: A375 melanoma cells; assay: Antiproliferation assay in A375 cell line by CellTiter Glo; assay type: cell-based; details: Homo sapiens, A-375, 72 hours or 144 hours
Protocol: (§1) In vitro anti-proliferation study of test compounds in A375 cell line by CellTiter Glo. The cells were routinely maintained as a monolayer culture in corresponding culture medium, at 37° C. with 5% CO2 in air.
(§2) Exponential growth cells were harvested by trypsin-EDTA digestion. Cell pellet was re-suspended in fresh culture medium, and the concentration adjusted as needed (the cell density per well was listed in following form). The cell viability was over 98% by Trypan blue staining. Cells were incoluated into 96 wells plates according to the plate map (90 μL/well). Plates were incubated at 37° C. and 5% CO2 overnight. The next day, the 10×compound containing medium was prepared according to the plate map. 10 μL of 10×compound containing medium was transferred into each well of the assay plates (the final DMSO concentration was 0.5%). The medium was gently mixed and incubated at 37° C. and 5% CO2 for another 72 hours or 144 hours.
(§3) Reagent was prepared according to the manufacture's instruction. 50 μL CellTiter-Glo Reagent were added in each well. Contents were mixed for 2 minutes on an orbital shaker to induce cell lysis. The plate was incubated at room temperature for 10 minutes to stabilize luminescent signal. 100 μL of reaction contents were transferred of each well from the clear plates into white walled/white opaque 96-well plates. Luminescence was recorded on Envision.
(§4) Using the luminescence measurements [time zero (T0), control growth (C), and test growth in the presence of drug at the six concentration levels (Ti)], the percentage growth was calculated at each of the drug concentrations levels.
(§5) Percentage growth inhibition (GI) was calculated as: GI (%)=[(Ti−T0)/(C-T0)]×100 for concentrations for which Ti>=T0, and GI (%)=[(Ti−T0)/T0]×100 for concentrations for which Ti<T0. Data were analyzed using the XLFit (Excel) tool, fitting to a 4-parameter equation to generate concentration response curves. Concentration of compound that inhibits 50% of control cell growth (GI50) was back-interpolated when y=50% of net growth of DMSO treated control wells using nonlinear regression with the equation: f(x) 205 [fit=(A+((B−A)/(1+((C/x)^D))))], where A is the minimum response (Ymin), B is the maximum response (Ymax), C is the inflection point of the curve (Re GI50) and D is the Hill coefficient. Growth inhibition of 50% (GI50) was calculated at the 50% Growth inhibition on the curve. Index values were the sum of Inhibition rate (IR) at each tested compound concentration.

[2] = test system: HT-29 colon cancer cells; assay: Antiproliferation assay in HT-29 cells (CellTiter Glo); assay type: cell-based; details: Homo sapiens, 72 hours or 144 hours
Protocol: [The source words this procedure for another cell line and reports this cell line under the same test.] as §1, §2, §3, §4, §5

[3] = test system: P-glycoprotein (MDR1); assay: MDCK-MDR1 permeability assay; assay type: in vitro ADME, canine; details: dog; for efflux ratio at 120 min: MDCK-MDR1, Papp(B−A)/Papp(A−B); for Papp A→B at 120 min: MDCK-MDR1, apical to basolateral; for Papp A→B at 120 min / Papp B→A at 120 min: 1-30 μM; for Papp B→A at 120 min: MDCK-MDR1, basolateral to apical
Protocol: MDCK-MDR1 cells originated from transfection of Madin Darby canine kidney (MDCK) cells with the MDR1 gene, the gene encoding for the efflux protein, P-glycoprotein. This cell line is ideal for identifying substrates of P-gp, with or without an inhibitor. The cells were seeded on a Multiscreen™ plate to form a confluent monolayer over 4 days prior to the experiment. On day 4, the test compound (1-30 μM concentration) was added to the apical side of the membrane and the transport of the compound across the monolayer was monitored over a 120 minutes time period. To study drug efflux, it was also necessary to investigate transport of the compound from the basolateral compartment to the apical compartment and calculate an efflux ratio.
(§6) The permeability coefficient (Papp) was calculated from the following equation: […]
where dQ/dt is the rate of permeation of the drug across the cells, C0 is the donor compartment concentration at time zero and A is the area of the cell monolayer.
An efflux ratio was calculated from the mean apical to basolateral (A−B) Papp data and basolateral to apical (B−A) Papp data.
Efflux Ratio=Papp(B−A)/Papp(A−B)

[4] = Caco-2 permeability assay; assay type: in vitro ADME; details: human; for efflux ratio at 120 min: Caco-2; for Papp A→B at 120 min: Caco-2, apical to basolateral; for Papp A→B at 120 min / Papp B→A at 120 min: 1-30 uM; for Papp B→A at 120 min: Caco-2, basolateral to apical
Protocol: Caco-2 cells are widely used as an in vitro assay to measure the permeability of a drug compound. The Caco-2 cell line is derived from a human colorectal carcinoma, and when cultured, the cells spontaneously differentiate into monolayers of polarized enterocytes. Caco-2 cells express P-glycoprotein and breast cancer resistance protein, two of the most relevant cell membrane active transporters that affect drug compound's permeability into cells and blood brain barrier.
The cells were seeded on Millipore Millicell plates and formed a confluent monolayer over 20 days prior to the experiment. On day 20, the test compound (1-30 uM concentration) was added to the apical side of the membrane and the transport of the compound across the monolayer was monitored over a 120 minutes time period. To study drug efflux, it was also necessary to investigate transport of the compound from the basolateral compartment to the apical compartment.
as §6
where dQ/dt is the rate of permeation of the drug across the cells, C0 is the donor compartment concentration at time zero and A is the area of the cell monolayer. C0 is obtained from analysis of the dosing solution at the start experiment.

[5] = Mouse pharmacokinetics study; assay type: in vivo; details: CD-1 mice; for F / AUC / Cmax / Tmax: PO 25 mg/kg; for Vd / half-life / clearance / AUC / Cmax / Tmax: mouse, plasma; for Vd / half-life / clearance: IV 5 mg/kg; for half-life: 20% Hydroxypropyl-beta-cyclodextrin; for clearance: read-out: Clp
Text: The pharmacokinetic properties of Compounds 5 and 6 was studied in CD-1 mice via intravenous and oral administration by using a standard protocol. The test articles were formulated in 20% Hydroxypropyl-beta-cyclodextrin, either as a clear solution or fine suspension.

SMILES	GI50 [1] [nM]	GI50 [2] [nM]	efflux ratio at 120 min [3]	Papp A→B at 120 min [3] [×10⁻⁶ cm/s]	Papp B→A at 120 min [3] [×10⁻⁶ cm/s]	also measured
O=C(NC1CCNC1)c1c(F)cc(F)cc1Nc1ccc(I)cc1F (stereo not shown) [Compound 2, 2,4-difluoro-6-((2-fluoro-4-iodophenyl)amino)-N-(pyrrolidin-3-yl)benzamide]	> 1000					
O=C(NC1CCCNC1)c1c(F)cc(F)cc1Nc1ccc(I)cc1F (stereo not shown) [Compound 3, 2,4-difluoro-6-((2-fluoro-4-iodophenyl)amino)-N-(piperidin-3-yl)benzamide]	> 1000					
O=C(NC1CN(CCF)C1)c1c(F)cncc1Nc1ccc(I)cc1F [Compound 9, 3-fluoro-5-((2-fluoro-4-iodophenyl)amino)-N-(1-(2-fluoroethyl)azetidin-3-yl)isonicotinamide]		< 100				
C#Cc1ccc(Nc2cncc(F)c2C(=O)NC2CN(CC)C2)c(F)c1 [Compound 12, N-(1-ethylazetidin-3-yl)-3-((4-ethynyl-2-fluorophenyl)amino)-5-fluoroisonicotinamide]	100 to 1000	100 to 1000				
O=C(NC1CNC1)c1c(F)cncc1Nc1ccc(Br)cc1Cl [Compound 14, N-(azetidin-3-yl)-3-((4-bromo-2-chlorophenyl)amino)-5-fluoroisonicotinamide]	100 to 1000	> 1000				
O=C(NC1CNC1)c1ccncc1Nc1ccc(I)cc1F [Compound 15, N-(azetidin-3-yl)-3-((2-fluoro-4-iodophenyl)amino)isonicotinamide]		< 100				
O=C(O)CCN1CC(NC(=O)c2ccncc2Nc2ccc(I)cc2F)C1 [Compound 18, 3-(3-(3-((2-fluoro-4-iodophenyl)amino)isonicotinamido)azetidin-1-yl)propanoic acid]	> 1000					
O=C(O)CCCN1CC(NC(=O)c2ccncc2Nc2ccc(I)cc2F)C1 [Compound 19, 4-(3-(3-((2-fluoro-4-iodophenyl)amino)isonicotinamido)azetidin-1-yl)butanoic acid]	100 to 1000					
CC(=O)N1CC(NC(=O)c2c(F)cncc2Nc2ccc(I)cc2F)C1 [Compound 20, N-(1-acetylazetidin-3-yl)-3-fluoro-5-((2-fluoro-4-iodophenyl)amino)isonicotinamide]	> 1000					

Now from value to compound, other results behind:

GI50 [1] [nM]	GI50 [2] [nM]	efflux ratio at 120 min [3]	Papp A→B at 120 min [3] [×10⁻⁶ cm/s]	Papp B→A at 120 min [3] [×10⁻⁶ cm/s]	SMILES	also measured
100 to 1000	> 1000				O=C(NC1CNC1)c1c(F)cc(F)cc1Nc1ccc(I)cc1F [Compound 1, N-(azetidin-3-yl)-2,4-difluoro-6-((2-fluoro-4-iodophenyl)amino)benzamide]	
100 to 1000	> 1000				O=C(NC1CNC1)c1c(F)c(F)c(F)c(F)c1Nc1ccc(I)cc1F [Compound 4, N-(azetidin-3-yl)-2,3,4,5-tetrafluoro-6-((2-fluoro-4-iodophenyl)amino)benzamide]	
< 100	< 100	3.42	10.5	36	O=C(NC1CNC1)c1c(F)cncc1Nc1ccc(I)cc1F [Compound 5, N-(azetidin-3-yl)-3-fluoro-5-((2-fluoro-4-iodophenyl)amino)isonicotinamide]	
< 100	< 100	0.53	34.1	18	CCN1CC(NC(=O)c2c(F)cncc2Nc2ccc(I)cc2F)C1 [Compound 6, N-(1-ethylazetidin-3-yl)-3-fluoro-5-((2-fluoro-4-iodophenyl)amino)isonicotinamide]	efflux ratio at 120 min [4]: 0.47; Papp A→B at 120 min [4]: 89.3 ×10⁻⁶ cm/s; Papp B→A at 120 min [4]: 42.3 ×10⁻⁶ cm/s; F [5]: 62.1 ± 11.4%; Vd [5]: 4.2 ± 0.33 L/kg; half-life [5]: 37.5 ± 2.58 min; clearance [5]: 77.8 ± 8 mL/min/kg; AUC [5]: 3160 ± 641 ng·h/mL; Cmax [5]: 1070 ± 328 ng/mL; Tmax [5]: 30 min
< 100		0.58	32.5	19	CN1CC(NC(=O)c2c(F)cncc2Nc2ccc(I)cc2F)C1 [Compound 7, 3-fluoro-5-((2-fluoro-4-iodophenyl)amino)-N-(1-methylazetidin-3-yl)isonicotinamide]	
< 100	< 100	4.08	14.6	59.5	C#Cc1ccc(Nc2cncc(F)c2C(=O)NC2CNC2)c(F)c1 [Compound 11, N-(azetidin-3-yl)-3-((4-ethynyl-2-fluorophenyl)amino)-5-fluoroisonicotinamide]	efflux ratio at 120 min [4]: 2.33; Papp A→B at 120 min [4]: 8.79 ×10⁻⁶ cm/s; Papp B→A at 120 min [4]: 20.5 ×10⁻⁶ cm/s; F [5]: 93.1 ± 6.0%; Vd [5]: 67.7 ± 13.9 L/kg; half-life [5]: 542 ± 41.4 min; clearance [5]: 86 ± 12 mL/min/kg; AUC [5]: 4550 ± 301 ng·h/mL; Cmax [5]: 1700 ± 95 ng/mL; Tmax [5]: 40.2 ± 17.4 min
< 100		11.8	4.3	50.8	O=C(NC1CNC1)c1c(Cl)cncc1Nc1ccc(I)cc1F [Compound 13, N-(azetidin-3-yl)-3-chloro-5-((2-fluoro-4-iodophenyl)amino)isonicotinamide]	
